The supplement of paper PMC9103864

Columns and labels:
[1] = system: BMSC (primary human bone marrow mesenchymal stromal cells); experiment: absolute EC50 for viability; higher = less sensitive
[2] = system: BMSC (primary human bone marrow mesenchymal stromal cells); experiment: drug sensitivity score (DSS); higher = more sensitive

Structure (SMILES) | absolute EC50 for viability [1] [µM] | drug sensitivity score [2]
CC1=C(/C=C/C(C)=C/C=C/C(C)=C/C(=O)O)C(C)(C)CCC1 [Tretinoin] | > 10 | 0
CC1(C)CNc2cc(NC(=O)c3cccnc3NCc3ccncc3)ccc21 [Motesanib] | > 10 | 0
CCn1c(-c2nonc2N)nc2cnc(Oc3cccc(NC(=O)c4ccc(OCCN5CCOCC5)cc4)c3)cc21 | > 10 | 7.3
CCc1c2c(nc3ccc(O)cc13)-c1cc3c(c(=O)n1C2)COC(=O)[C@]3(O)CC [SN-38] | 1.52 | 10
Oc1ccc2c(c1)CC[C@H](c1ccccc1)[C@@H]2c1ccc(OCCN2CCCC2)cc1 [Lasofoxifene] | > 1 | 0.4
FC(F)(F)c1ccc(/C=C/c2nc(COc3ccc(CCCCn4ccnn4)cc3)co2)cc1 [Mubritinib] | > 1 | 0.4
CC(=O)OC[C@H]1O[C@@H]([S-])[C@H](OC(C)=O)[C@@H](OC(C)=O)[C@@H]1OC(C)=O.CCP(CC)CC.[Au+] [Auranofin] | 1.39 | 3.3
Cc1cc(-c2nc(-c3ccc(OC(F)(F)F)cc3)no2)nn1Cc1ccnc(N2CCN(C3CC3)CC2)c1 [BAY 87-2243] | > 1 | 0
Cc1cnc(-c2ccccc2C(C)C)nc1NCc1ccc(-n2ccnn2)cc1 [ML323] | > 10 | 0
CN1CCN(C(=O)c2ccc3cc(CCNc4ncnc5ccc(C#N)cc45)ccc3c2)CC1 [Senexin B] | > 1 | 0.3
NCCNc1ccc(NCCN)c2c1C(=O)c1ccncc1C2=O [Pixantrone] | > 10 | 0
CCOc1cc2ncc(C#N)c(Nc3ccc(OCc4ccccn4)c(Cl)c3)c2cc1NC(=O)/C=C/CN(C)C [Neratinib] | > 1 | 2.3
Nc1nc2[nH]cnc2c(=S)[nH]1 [Thioguanine] | 1.18 | 9.2
O=C1c2c(O)ccc(O)c2C(=O)c2c(NCCNCCO)ccc(NCCNCCO)c21 [Mitoxantrone] | 0.185 | 8
COc1ccc(COc2cc3oc(=O)c4cc(C(C)O)ccc4c3cc2OC)cc1 (stereo not drawn) [Palomid-529] | > 10 | 0
N#CC[C@H](C1CCCC1)n1cc(-c2ncnc3[nH]ccc23)cn1 [Ruxolitinib] | > 10 | 0.2
Cc1noc2c1-c1ccccc1C(c1ccc(Cl)cc1)=N[C@H]2CC(N)=O [CPI-0610] | > 10 | 0
C=CC(=O)N1CCC(Oc2cc3c(Nc4ccc(Cl)c(Cl)c4F)ncnc3cc2OC)CC1 [Poziotinib] | > 1 | 4.2
CNC(=O)c1ccc2cc([C@@]3(O)CCn4cncc43)ccc2c1 [Orteronel] | > 10 | 0
CC[C@H](CC#N)OC(=O)N[C@@H](C)c1cccc(NC(=O)Nc2ccc(-c3cnco3)c(OC)c2)c1 [AVN944] | > 10 | 3.9
CN(C)CCOc1ccc(/C(=C(/CCCl)c2ccccc2)c2ccccc2)cc1 [Toremifene] | > 10 | 0
CC1(C)CCC(CN2CCN(c3ccc(C(=O)NS(=O)(=O)c4ccc(NCC5CCOCC5)c([N+](=O)[O-])c4)c(Oc4cnc5[nH]ccc5c4)c3)CC2)=C(c2ccc(Cl)cc2)C1 [Venetoclax] | > 1 | 0

Structure (SMILES) | absolute EC50 for viability [1] [µM] | drug sensitivity score [2]
COc1cc(N2CCC(N3CCN(C)CC3)CC2)ccc1Nc1ncnc(Nc2ccccc2S(=O)(=O)C(C)C)n1 [ASP3026] | 2.29 | 6.5
CC(C)C[C@@H](C(=O)N[C@H](C(=O)OC1CCCC1)c1ccccc1)[C@H](O)C(=O)NO [Tosedostat] | > 10 | 0
CN(C)CCCOc1ccc(-c2ccc3ncc4c(c3c2)n(C2CCOCC2)c(=O)n4C)cn1 [AZD0156] | > 1 | 1.9
Cn1cc(C[C@@H](N)C(=O)O)c2ccccc21 [1-methyl-D-tryptophan] | > 5 | 0
N#Cc1ccnc(N2C(=O)CC[C@H]2C(=O)N(c2cncc(F)c2)[C@H](C(=O)NC2CC(F)(F)C2)c2ccccc2Cl)c1 [Ivosidenib] | > 10 | 0
Nc1ccccc1NC(=O)c1ccc(CNc2nccc(-c3cccnc3)n2)cc1 [Mocetinostat] | > 10 | 4.7
CCN(CC)C(=S)SSC(=S)N(CC)CC [Disulfiram] | > 50 | 0
CCN(CC)CCCC(C)Nc1ccnc2cc(Cl)ccc12 (stereo not drawn) [Chloroquine] | 12.8 | 10.3
Cc1c(-c2c(-c3ccc(F)o3)sc3ncnc(O[C@H](Cc4ccccc4OCc4ccnn4CC(F)(F)F)C(=O)O)c23)ccc(OCCN2CCN(C)CC2)c1Cl | > 1 | 0
C[C@@H](NC(=O)c1ncnc(N)c1Cl)c1ncc(C(=O)Nc2cc(C(F)(F)F)c(Cl)cn2)s1 [TAK-580] | > 10 | 5.7
Cc1cnc(Nc2ccc(OCCN3CCCC3)cc2)nc1Nc1cccc(S(=O)(=O)NC(C)(C)C)c1 [Fedratinib] | 1.47 | 9.3
CC(C)[C@@H](CS(=O)(=O)C(C)C)N1C(=O)[C@@](C)(CC(=O)O)C[C@H](c2cccc(Cl)c2)[C@H]1c1ccc(Cl)cc1 [AMG-232] | 0.185 | 18.7
CC(C)c1c(C(=O)Nc2ccccc2)c(-c2ccccc2)c(-c2ccc(F)cc2)n1CC[C@@H](O)C[C@@H](O)CC(=O)O [Atorvastatin] | 8.18 | 3.1
CNC(=O)c1cccc2cc(Oc3ccnc4cc(OCC5(N)CC5)c(OC)cc34)ccc12 [Lucitanib] | > 10 | 9
O=C(O)c1ccc(O)c2ncccc12 [IOX-1] | > 100 | 0.6
C[C@]12CC[C@H](O)CC1=CC[C@@H]1[C@@H]2CC[C@]2(C)C(c3cccnc3)=CC[C@@H]12 [Abiraterone] | > 5 | 0
c1cc(CN2CCCNCCNCCCNCC2)ccc1CN1CCCNCCNCCCNCC1 [Plerixafor] | > 10 | 0
COC(=O)c1ccc2c(c1)[nH]c1ncnc(NCCCN3CCCCC3)c12 [UM729] | > 10 | 3.3
Nc1ccccc1NC(=O)c1ccc(CNC(=O)OCc2cccnc2)cc1 [Entinostat] | > 10 | 3.5
O=c1[nH]c(C2CCCN2)nc2c1oc1ccc(Cl)cc12 (stereo not drawn) | > 10 | 0.6
CCN(CC)CCOc1ccc(C(=C(Cl)c2ccccc2)c2ccccc2)cc1 [Clomifene] | > 10 | 0.9
Cc1cc(C(C)Nc2ccccc2)c2nc(N3CCOCC3)cc(=O)n2c1 (stereo not drawn) [TGX-221] | > 10 | 0.3
